Holding throughout (type): cell-based, human
The subject of assay [1] is MDA-MB-231 cells. As to the kind of experiment: Relative cell growth, MDA-MB-231. Here is the method: Trypan Blue Cell Viability Assay. MDA-MB-231 cells were treated with DMSO or […] STR22 every 24 hours for 24 hours (FIG. 104A) or 120 hours (FIG. 104B) under 1% 02 and then trypsinized for 5 minutes at 37° C., 5% CO2, 1% 02 and then quenched with a double volume of DMEM media. The cell suspension was then collected and subjected for trypan blue viability reading using trypan blue cell viability analyzer (Beckman Coulter Vi-CELL XR).

Assay [2] has as its system HIF1α. As to the kind of experiment: Western blot of HIF1α under hypoxia, HeLa. As to conditions: hypoxia 1% O2 6 hr. Here is the method: To study the effects of STR22 on hypoxia-induced gene transcription factor DNA binding and target gene expression, the induction of HIF1α and downstream HRE-target genes like VEGFA, PDK1, PGK1 and GLUT1 in response to acute hypoxia (e.g., 1% 02 for 6 hr) was validated.
Immunoblotting. Following indicated treatments, cells were first washed with ice-cold PBS. Whole-cell extracts were prepared by directly lysing cells with Laemmli sample buffer (Bio-rad, 1610747) supplemented with 2-Mercaptoethanol (Gibco, 21985023), protease inhibitor (Roche, 4693159001), PMSF (Roche, 10837091001) and phosphatase inhibitor (GB-450) at 4° C. Finally, protein samples were boiled at 95° C. for 5 mins. Western blotting was performed using antibodies for XBP1 (Biolegend, 9D11A43), HIF1α (Novus Biologicals, NB100-479), GAPDH (Santa Cruz Biotech, sc-32233) and α-tubulin (Invitrogen, MA1-19401) were used. Blots were imaged using Li—COR Odyssey Fc.
(In general: Immunoblotting shows a protein as a band on a membrane.)

Assay [3] deals with HIF1α. As to the kind of experiment: ChIP-qPCR of HIF1α binding to HRE-containing genes. As to conditions: hypoxia 1% O2 6 hours, 20 μM 24 hours. The procedure:
Chromatin Immunoprecipitation (ChIP): For XBP1s-ChIP experiments, 3×10^6 HeLa cells were transfected with 1 μg of either the control or Flag-XBP1s vector for 4 hrs and then followed by 20 μM STR22. For hypoxia response experiments, 10×10^6 HeLa cells were treated with 20 μM STR22 for 24 hrs, followed by an additional 6 hrs under 1% 02. At the end of all treatments, cells were crosslinked with 1% formaldehyde for 10 min at 37° C. and then quenched with 125 mM glycine for 1 min. Cells were sheared in buffer containing: 0.1% SDS, 50 mM Tris-HCl (pH 7.6), 1 mM EDTA (pH8.0), 0.002% Triton X-100, supplemented with PMSF (Roche, 10837091001) and protease inhibitor (Roche, 11836170001). Lysates were sonicated with a Bioruptor for a total of 4 cycles for ChIP-qPCR, or 40 cycles for ChIP-sequencing (30 sec on/30 sec off each cycle). Sonicated chromatin was incubated with antibodies overnight at 4° C. Antibodies used: HIF1α (Novis Biologicals, NB100-479), normal rabbit serum (Jackson Immunoresearch, 011-000-001), Flag (Sigma, F1804-200UG), mouse IgG conjugated with Dynabeads Protein A (Life Technologies, 10001D)+G (Invitrogen, 10003D). […]
A general note: In qPCR the cycle at which signal appears reflects the starting amount.

The subject of assay [4] is MDA-MB-231 cells. As to the kind of experiment: Boyden chamber invasion, MDA-MB-231. The settings on record: MDA-MB-231, 20 μM, 24 hours, hypoxia. Here is the method:
Boyden Chamber Invasion Assay. Each Boyden chamber membrane (Fisher Scientific, 353097) was coated with a thin layer of Basement Membrane Extract (BME, 200 μl of 0.25 mg/ml stock; 50 μg total BME per membrane) and incubated at 37° C. for 1 hr. Cells were trypsinized, neutralized in 10% FBS DMEM media, and centrifuged at 500×g for 5 min followed by two rounds of PBS washes to remove remaining serum-containing media. Cells were then resuspended in serum-free media and diluted to the desired concentration for plating onto the Boyden chamber. 1×10^6 MDA-MB-231 cells in 300 μL serum-free media were plated on each Boyden chamber. 500 μL of 10% FBS DMEM media was placed in the lower well, acting as the chemoattractant. Serum-free media placed in the lower wells served as negative controls. Treated cells were plated in 20 μM of STR22. After a 24 hr incubation, the membranes were stained with Calcein AM (Fisher Scientific, 354217) for 1 hr at 37° C. to stain for live cells. The tops of the chambers were swabbed to remove remaining cells, and cells on the bottom of the chamber were dissociated from the membrane by incubating in cell dissociated buffer (R&D Systems, 3455-05-03) in a shaker at 37° C. for 1 hr. Calcein AM signal was measured in Perkin Elmer Victor X3 plate reader as a read-out of invaded cells.

Entries after “also recorded” stand apart in the source; their conditions may differ.

Take “XBP1-derived stapled dimer: RRK^KNR^AAQTARDRKKA#LSELEQQVVDLE linked to RRK^KNR^AAQTARDRKKARLSEL#QQVVDLE; FIG. 27 [STR22]”: in the assay on MDA-MB-231 cells [1], the “cell growth under hypoxic conditions” value is given as “significantly slowed cell growth” and the “proliferation under normoxic conditions” value is “little effect on the proliferation”. Further, the “induction of HIF1α protein” value with HIF1α [2] is on record as “did not affect the induction of HIF1α protein; also recorded: not affected”. Also, the “HIF1α binding at HRE target genes (ChIP-qPCR)” value with HIF1α [3] is recorded as “almost completely blocked HIF1α binding; also recorded: abrogated HIF1α binding”. Also, the cell invasion result in the assay on MDA-MB-231 cells [4] is “significantly inhibited cell invasion”.

For the origin of these results see patent US20250136650A1, “COMPOSITIONS AND METHODS FOR DNA BINDING AND TRANSCRIPTIONAL REGULATION” (THE UNIVERSITY OF CHICAGO, priority 2021, published 2025).
